In a melting point compilation (Tetko et al.; mined from patent text by program, amines drawn as free bases though some values may be those of a salt):

SMILES | melting point [°C]
O=C(Nc1ccc(S(=O)(=O)Oc2ccccc2)cc1[N+](=O)[O-])NS(=O)(=O)Cl | 190
CON=C1[C@@H](c2cc(OC)c(OC)c(OC)c2)CC[C@@H]1c1cc(OC)c(OC)c(OC)c1 (relative stereo) | 61 to 63
CN1CN(C)C(=S)N(c2ccccc2)C1 | 85 to 87
CCOC(=O)/C=C/C=C/C(=O)c1cc2c(cc1C)C(C)(C)CCC2(C)C | 101 to 102
Cn1c(C(F)(F)F)cc(=O)n(-c2ccc(Cl)c3c2OC(C)(C)C3=O)c1=O | 177 to 178
CSCCC(NC(C)=O)C(=O)N1CC1C#N (stereo not given) | 86 to 88
CC(c1oc2ccccc2c(=O)c1-c1cccc(F)c1)n1nc(-c2cccc3[nH]ncc23)c2c(N)ncnc21 (stereo not given) | 231 to 233
CC(C)(C)N(NC(=O)c1ccccc1)C(=O)Cc1ccccc1 | 167 to 169
CCC(O)(c1ccc(F)cc1)c1ccc(OCc2ccccc2)cc1 (stereo not given) | 56 to 57
COC(=S)c1[nH]c2ccc(Cl)cc2c1-c1ccccc1 | 193 to 196
O=C1OC(=O)c2cc(C#Cc3cccc4ccccc34)ccc21 | 220 to 222
COCCOCC(=O)C1CCC2C3CCC4CC(O)CCC4(C)C3C(=O)CC12C (stereo not given) | 115 to 121
CC(=O)c1cc(Cc2ccccc2)c(O)c2ccccc12 | 139 to 141
CN(C)c1cnc(N)cn1 | 71.5 to 74.2
O=c1cc(-c2ccccc2)cc[nH]1 | 226 to 230
O=[N+]([O-])c1ccc(OCc2nnco2)cc1 | 125 to 126
COc1ccc2nc(-c3ccc(N)cc3)sc2c1 | 191 to 193
C=CCCCSC1NN=C(c2ccncc2)N1c1ccccc1 (stereo not given) | 132 to 133
COc1cc(OC)cc(C2(O)C(=O)Nc3ccc(Cl)cc32)c1 (stereo not given) | 191
Fc1cccc(-c2ncc(-c3cnc(-c4cccnc4)[nH]3)cn2)c1 | 309
Oc1ccc(C2=C(c3ccc(OCCCCCSCCCC(F)(F)C(F)(F)F)cc3)c3ccc(O)cc3CCC2)cc1 | 157 to 158
O=C1Nc2cc(Cl)ccc2C(=O)C1c1cccnc1 (stereo not given) | > 340

SMILES | melting point [°C]
CCOP(=O)(OCC)C1CCn2c(=O)c(=O)[nH]c3cc(C(F)(F)F)cc1c32 (stereo not given) | 250
O=CNc1nc(SCc2ccccc2)nn1-c1ccccc1 | 94
O=C(O)CCCSC(=S)NCCCc1ccc(Cl)cc1 | 98 to 100
O=C1c2cc(OCc3ccccc3)ccc2OCC1Oc1cccnc1 (stereo not given) | 133 to 134
CN1CCC23CC(=O)C=CC2C1Cc1cccc(Oc2nnnn2-c2ccccc2)c13 (stereo not given) | 172 to 174
CN(c1nc(-c2cc3ccccc3[nH]c2=O)cs1)S(=O)(=O)c1ccc(Br)cc1 | 280 to 282
O=C(O)c1ccc(NC(=O)c2ccccc2-c2ccccc2)cc1Cl | 217 to 219
N=C(Nc1ccc(F)c(NC(=O)/C=C/c2ccccc2Cl)c1)c1ccccc1 | 189 to 191
COC(=O)c1c(C#N)ccc(NC(=NC#N)Nc2ccccc2Br)c1O | 210 to 211
CNc1ccccc1C(O)c1ccccc1 (stereo not given) | 124 to 126
BrC(Br)c1nccnc1C(Br)Br | 167 to 170
O=C1Nc2cccc(Cl)c2C12COc1cc3c(cc12)CCO3 (stereo not given) | > 200
NC(=O)c1c(Cl)cc(Cl)c(CC(=O)O)c1Cl | 211
C1=C(c2ccc3c(c2)OCO3)CCC2(C1)OCCO2 | 75 to 76
CNC(=O)Oc1ccc2ccccc2c1 | 119
CCNC1=NS(=O)N=C1NCCSCc1ccc(CN(C)C)o1 (stereo not given) | 68 to 74
COc1cccc(-c2noc(-c3ccccn3)n2)c1 | 90 to 94
Cc1ccc(-c2cn3cc(C(F)(F)F)ccc3n2)cc1 | 187 to 188
COCC#Cc1ncn2c1CN(C)C(=O)c1ccccc1-2 | 114 to 115
CS(=O)(=O)c1ccc(-c2[nH]c3ccc(F)cc3c2-c2ccccc2)cc1 | 243 to 245
CCCCCCCCCCCC#Cc1ccccc1C=C(C(=O)OCC)P(=O)(O)O | 68 to 69

Results, then the molecule that gave them:

melting point [°C] | SMILES
140 to 141 | CNS(=O)(=O)c1ccc(C)cc1C(=O)O
170 to 171 | CCOC(=O)c1csc(-c2ccc3c(=O)n(CC(C)C)c(CNC(=O)OC(C)(C)C)c(-c4ccccc4)c3c2)n1
> 260 | O=c1[nH]c2ncc(-c3cncnc3)nc2n1CC1CCCCC1
47 to 50 | CCCNC(=O)C(C)(C)n1cc(C)c(-c2ccccc2)n1
173 to 175 | COc1ccc(CNc2nn(CC(=O)O)c(=O)c3ccc(C#N)cc23)cc1Cl
77 to 79 | Cc1nn2ccccc2c1C=O
252 to 257 | CCOC(=O)c1c(SC2CCCCC2=O)nc2cc(Cl)c(F)cc2c1O (stereo not given)
204 to 206 | CC1(C)Oc2ccc(C#N)cc2C(OC2=CC(=O)CC2)C1(C)O (stereo not given)
91 to 92 | CCOC(=O)C1CCN(S(C)(=O)=O)CC1
186 to 187 | CC(=O)NC[C@H]1CN(c2ccc(N3CCC(O)(C[N+](=O)[O-])CC3)c(F)c2)C(=O)O1
161 to 162 | CNC(=O)N1CC(Sc2ccc(Cl)cc2)C1
116 to 117 | O=C(NCCO)c1cccc(-c2cccc3nn(Cc4ccc(F)c(F)c4)cc23)c1
169 to 170 | COc1ccc(C2c3cc(NC(=O)CC(C)(C)C)c(C)c(C)c3OC2(C)C)cc1 (stereo not given)
> 300 | CCn1cc(C(=O)O)c(=O)c2cc(F)c(N3Cc4ccc(N)cc4C3)cc21
132 to 134 | CCN1CN=C2SCC(O)(c3ccc(Br)cc3)N2C1 (stereo not given)
179 to 181 | O=C(CCCCNC(=O)c1cn2c3c(cccc13)CCC2)NO

melting point [°C] | SMILES
259 to 260 | Cc1cccc(C)c1CNc1cc(C(=O)NCCO)cc2c1nc(C)n2C
138 | Cc1cc(CNS(=O)(=O)c2ccc(Br)s2)cc(C)n1
107 to 109 | Cc1c(CNC2CCCC2)[nH]c2c(C)c(NC(=O)c3ccc(OC[C@@H]4CCCO4)cc3)ccc12
108 | COC(=O)CCN1CCC(=C2c3sccc3CCn3ccnc32)CC1
189 | Cc1c(NC(=O)c2ccc(OC[C@@H]3CCCO3)cc2)ccc2c1cc(CNC1CCCC1)n2C
130 to 132 | Nc1ccc(O)c(-c2cccs2)c1
139 to 142 | Cc1cncc(CNC(=O)c2sc(N3CCN(CC(C)C)C3=O)nc2C)n1
173 | O=C1NC(=O)C(Cc2ccc(OCCNc3ncccn3)cc2)S1 (stereo not given)
67 to 68 | CCCNc1ncnc2c1ncn2CCCN1CCN(c2ccccc2)CC1
136 to 137 | CCOC(=O)C1=C(C)NC(C#N)=C(C(=O)OCC)C1c1ccccc1Cl (stereo not given)
158 to 161 | Cc1ncoc1CN1CCc2c(c3cccc(F)c3n2C)C1=O
100 to 120 | CC1COCc2nc3c(N)nc4ccc(OCc5ccccc5)cc4c3n21 (stereo not given)
124 to 131 | CCC(=O)C1=C(O)CC(c2cccc(O)c2)CC1=O (stereo not given)
234 to 235 | Cc1cc(-c2nc3cccnn3c2-c2ccnc(NC(=O)NC(C)(C)C)c2)ccc1F
139 to 141 | CCOC(=O)C1Cc2c([nH]c3ccccc23)CN1C(=S)SC (stereo not given)
236 to 238 | O=C(O)Cn1sc2ccccc2c1=O
